Paper PMC6222496 (Molecules : A Journal of Synthetic Chemistry and Natural …, 2018)
Like-named read-outs stand apart in the source and are kept apart here.

How the values were obtained:
rhesus monkeys = settings: rhesus monkey, in vivo; cited from earlier work
rats [1] = settings: cited from earlier work; for pro-depressive effects: 2-ethoxymethyl ether Sal B 0.3 mg/kg, β-tetrahydropyran Sal B 2 mg/kg
rats [2] = settings: 0.1 mg/kg; cited from earlier work
rats [3] = settings: cited from earlier work
B6.SJL mice [4] = settings: cited from earlier work
human KOPr [5] = settings: cited from earlier work
rat KOPr = settings: cited from earlier work
Sprague Dawley rats [6] = settings: rat, in vivo
mice [7] = settings: Sal A 3–10 mg/kg, for 30 min; cited from earlier work
mice [8] = tested on: mice; design: method as in PMID 28263712; settings: chronic escalation drinking; cited from earlier work
mice [9] = tested on: mice; design: method as in PMID 28263712; settings: 3 mg/kg; cited from earlier work
drug naïve rats = settings: cited from earlier work
rats [10] = settings: rat, in vivo
hKOR = target: T1, hKOR (Homo sapiens, UniProt P41145); experiment: cell-based; format: cell-based
T1 construct: host or cells: U2OS (PathHunter U2OS-hKOR-βarrestin2-DX)

B6.SJL mice [11] = settings: mouse, in vivo; for EC50 (antinociception, % MPE): sc
human KOPr [12] = settings: cited from earlier work; remark: listed apart in the source
KOPr [13] = target: T2, KOPr (Homo sapiens, UniProt P41145); experiment: cell-based
T2 construct: host or cells: CHO (HitHunter cell line)

rats [14] = experiment: Forced swim test; format: in vivo, rat; settings: 0.3 mg/kg i.p., 45 min before test
Procedure: The FST apparatus consisted of a cylinder (44 cm high and 20 cm in diameter) filled to 35 cm with water maintained at 25 ± 1 °C. On the habituation day, the rats were placed in the swim chamber for 15 min and the following day were administered either with Mesyl Sal B (0.3 mg/kg, i.p.) or the vehicle (75% DMSO, 1 mL/kg, i.p.) and placed in the swim chamber45 min later. The forced swimming behavior was recorded by a video camera and the climbing, swimming, or immobility behaviors were recorded for 5 min. Data were analyzed using the SMART software (version 3.0; PanLab, Barcelona, Spain).

mice [15] = tested on: mice
rats [16] = tested on: rats
Sprague-Dawley rats [17] = experiment: Expression of behavioral sensitization to cocaine; format: in vivo, rat; settings: 0.3 mg/kg i.p. on day 10, 45 min before cocaine 20 mg/kg
B6.SJL mice [18] = format: in vivo, mouse
B6.SJL mice [19] = settings: cited from earlier work; for duration of action (antinociceptive effects): 1 mg/kg
rats [20] = tested on: rats; remark: listed apart in the source
Sprague Dawley rats [21] = experiment: Sucrose self-administration / sucrose intake; format: in vivo, rat; settings: 0.3 and 1.0 mg/kg i.p., 45 min pretreatment
Procedure: For sucrose reinforcement tests, rats were maintained at approximately 85% of their initial feeding weights with free access to water throughout the experiment. Rats were trained to orally self-administer a 10% sucrose solution in eight modular test chambers (Med Associates) as previously described. Rats were trained to self-administer sucrose orally using an auto-shaping procedure (45 min daily for ten days). Once stable responding was achieved, the animals were maintained on a Fixed Ratio 1 (FR1) schedule of reinforcement where depression of the active lever (left lever) led to the delivery of sucrose solution. Following oral acquisition, the response requirements were increased to an FR5 schedule of reinforcement. Daily 1 h sessions were conducted until there was less than 20% variation in responding for three consecutive days. The animals on stable FR5 reinforcements were subjected to the sucrose reinforcement test. On the test day, rats received either vehicle (75% DMSO, 1 mL/kg, i.p.) or Mesyl Sal B (0.3, 1.0 mg/kg, i.p.) and 45 min later, sucrose reinforced lever-press responding was recorded for 60 min.

Sprague-Dawley rats [22] = experiment: Cocaine-induced hyperactivity; format: in vivo, rat; settings: 0.3 mg/kg i.p., 45 min prior to cocaine 20 mg/kg
Sprague-Dawley rats [23] = settings: rat, in vivo; cited from earlier work
mice [24] = settings: mouse, in vivo; cited from earlier work
Rhesus macaques = settings: 0.01–0.1 mg/kg i.v.; cited from earlier work
mice [25] = settings: 1–3.2 mg/kg; cited from earlier work
Sprague-Dawley rats [26] = settings: rat, in vivo; cited from earlier work; remark: listed apart in the source
rats [27] = settings: 0.3 mg/kg; cited from earlier work
KOPr [28] = target: T2, KOPr; design: method as in PMID 25320048; settings: human embryonic kidney cells; cited from earlier work
rats [29] = settings: 0.16 mg/kg; cited from earlier work
[30] = tested on: P-glycoprotein efflux pump; settings: cited from earlier work
Sprague Dawley rats [31] = settings: rat, in vivo; cited from earlier work
[32] = 2 mg/kg i.p., 5 min before formaldehyde

T1 sequence (P41145 whole entry): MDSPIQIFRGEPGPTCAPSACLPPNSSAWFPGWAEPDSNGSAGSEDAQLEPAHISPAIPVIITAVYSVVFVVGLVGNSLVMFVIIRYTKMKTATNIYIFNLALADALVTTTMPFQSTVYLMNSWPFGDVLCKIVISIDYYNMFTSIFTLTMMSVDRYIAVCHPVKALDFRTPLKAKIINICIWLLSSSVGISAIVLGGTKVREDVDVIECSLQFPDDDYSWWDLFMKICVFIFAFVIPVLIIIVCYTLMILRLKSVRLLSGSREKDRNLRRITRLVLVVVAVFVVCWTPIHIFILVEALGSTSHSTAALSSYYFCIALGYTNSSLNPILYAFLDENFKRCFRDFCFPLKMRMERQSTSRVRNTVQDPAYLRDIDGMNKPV
T1 sequence (P32121 whole entry partner): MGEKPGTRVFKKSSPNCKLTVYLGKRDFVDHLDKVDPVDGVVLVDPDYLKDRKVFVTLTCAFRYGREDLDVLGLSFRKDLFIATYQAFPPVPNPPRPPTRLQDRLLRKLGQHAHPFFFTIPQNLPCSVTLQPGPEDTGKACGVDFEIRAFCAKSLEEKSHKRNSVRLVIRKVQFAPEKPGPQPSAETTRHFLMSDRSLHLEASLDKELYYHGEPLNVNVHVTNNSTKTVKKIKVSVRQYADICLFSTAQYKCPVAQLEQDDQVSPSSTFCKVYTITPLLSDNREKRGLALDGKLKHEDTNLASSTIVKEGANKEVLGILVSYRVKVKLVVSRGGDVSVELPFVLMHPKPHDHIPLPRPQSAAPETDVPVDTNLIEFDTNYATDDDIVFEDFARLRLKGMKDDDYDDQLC
T2 sequence (P41145 whole entry): as the sequence (P41145 whole entry) above

## CCC12CCN(CC3(O)CC3)C(Cc3ccc(O)cc31)C2(C)C (stereo not drawn) [bremazocine]
Rhesus monkeys
  cocaine self-administration: decreased
  food reinforcements: decreased

## CCOCO[C@H]1C[C@@H](C(=O)OC)[C@]2(C)CC[C@H]3C(=O)O[C@H](c4ccoc4)C[C@]3(C)[C@H]2C1=O [2-ethoxymethyl ether Sal B]
Rats [1]
  pro-depressive effects: did not
Rats [2]
  aversive effects in the CPA paradigm: did not show aversive effects
Rats [3]; rats
  cocaine-prime induced cocaine seeking: attenuate

## spirobutyrolactone Sal B
B6.SJL mice [4]
  formaldehyde-induced paw edema: significantly reduced
  nociceptive phase of pain: did not reduce
B6.SJL mice [4]; intraplantar 2% formaldehyde
  antinociceptive effects, inflammatory phase: potent antinociceptive effects

## CC[C@]12CCN(CC3CC3)[C@H](C(=O)c3ccc(O)cc31)[C@@H]2C [ethylketazocine]
Rhesus monkeys
  cocaine self-administration: decreased
  food reinforcements: decreased

## CN(C(=O)/C=C/c1ccoc1)[C@@H]1CC[C@@]2(O)[C@H]3Cc4ccc(O)c5c4[C@@]2(CCN3CC2CC2)[C@H]1O5 [nalfurafine]
Human KOPr [5]
  signaling bias: extreme G-protein biased signaling
Rat KOPr
  signaling bias: bias to a much lesser extent

## Oc1ccc2c3c1O[C@H]1c4[nH]c5c(c4C[C@@]4(O)[C@@H](C2)N(CC2CC2)CC[C@]314)C[C@@]1(O)[C@H]2Cc3ccc(O)c4c3[C@@]1(CCN2CC1CC1)[C@H]5O4 [nor-BNI, Nor-binaltorphimine]
Sprague Dawley rats [6]
  effect on U50488-induced decrease in recognition index: prevented

## RB-64
Mice [7]
  motor coordination in rotarod performance test: did not cause any motor deficits

## COC(=O)[C@@H]1C[C@H](OS(C)(=O)=O)C(=O)[C@H]2[C@@]1(C)CC[C@H]1C(=O)O[C@H](c3ccoc3)C[C@]21C [Mesyl Sal B, (2S,4aR,6aR,7R,9S,10aS,10bR)-9-(methanesulfonyloxy)-2-(3-furanyl)dodecahydro-6a, 10b-dimethyl-4,10-dioxy-2H-naptho [2,1-c]pyran-7-carboxylic acid methyl ester]
Mice [8]
  alcohol intake: attenuates
Mice [9]
  sucrose or saccharin intake: no effect
Drug naïve rats; rat, in vivo
  locomotor activity, spontaneous open field: no significant effect
Rats [10]
  time spent in the drug-paired chamber: did not significantly alter
hKOR
  Bias Factor: 0.61
  EC50: 236 nM
  β-Arrestin Recruitment (PathHunter) Efficacy: 90.2%
B6.SJL mice [11]
  Emax: 38%
  EC50 (antinociception, % MPE): 3.0 mg/kg
Human KOPr [12]
  Ki: 2.3 ± 0.1 nM
KOPr [13]
  EC50: 0.12 nM
Sprague Dawley rats [6]
  recognition index (RI) value: No change
Rats [14]
  swimming time: significant decrease
  time spent immobile: significant increase
Mice [15]; mouse, in vivo
  motor impairment (latency to fall): no motor impairment
Rats [16]; rat, in vivo
  time spent in the open arm: no effect
Rats [3]; rat, in vivo
  cocaine-prime induced reinstatement of drug seeking: attenuate
Sprague-Dawley rats [17]
  expression of cocaine behavioral sensitization: suppresses
B6.SJL mice [18]; mouse, in vivo
  pain score: small but significant decrease
  phase 1 nociceptive pain (0–15 min): minimally effective
  phase 2 inflammatory pain (20–60 min): reducing phase 2 pain at the 30 min time point
B6.SJL mice [18]; mouse, in vivo, ip, 2 mg/kg
  formaldehyde-induced paw edema: no significant reduction
B6.SJL mice [19]; mouse, in vivo, ip
  duration of action (antinociceptive effects): 60 min
B6.SJL mice [19]; mouse, in vivo
  time at which effects are seen (onset of action): 30 to 60 min
Rats [20]; rat, in vivo
  taste aversion (saccharin consumption on test day): did not induce taste aversion
Sprague Dawley rats [21]
  sucrose intake (sucrose-reinforced responding): no effect
Sprague-Dawley rats [22]
  cocaine-induced hyperactivity: suppressed

## COC(=O)[C@@H]1C[C@H](OC(C)=O)C(=O)[C@H]2[C@@]1(C)CC[C@H]1C(=O)O[C@H](c3ccoc3)C[C@]21C [Sal A, Salvinorin A]
Rats [1]; 0.25–2 mg/kg, rats
  depressive effects: induces depressive effects
Rats [1]; 10–1000 μg/kg, rats
  anti-depressive and anxiolytic effects: potent anti-depressive and anxiolytic effects
Drug naïve rats; 0.3 mg/kg, rats
  spontaneous locomotion, open field: did not alter
Sprague-Dawley rats [23]
  locomotor activity produced by acute cocaine administration: increased
hKOR
  Bias Factor: 0.35
B6.SJL mice [11]
  Emax: 87%
  EC50 (antinociception, % MPE): 2.1 mg/kg
Human KOPr [5]; human receptor
  signaling bias: significantly biased towards the β-arrestin2 pathway
Mice [15]; 2 mg/kg i.p., at 2 and 15 min
  motor impairment (latency to fall): significant motor impairment
Rats [16]; 1 mg/kg
  time spent in the open arm: significantly decreased
Mice [24]
  climbing behavior (motor coordination): rapidly disrupt climbing behavior
Mice [7]
  motor coordination in rotarod performance test: induced motor incoordination
Rats [3]; rats
  cocaine-prime induced cocaine seeking: attenuate
  cocaine-prime induced reinstatement of drug seeking: attenuate
B6.SJL mice [18]; [32]
  phase 1 nociceptive pain (0–15 min): significant attenuation
  phase 2 inflammatory pain (20–60 min): significant attenuation
B6.SJL mice [18]; 60 min after formaldehyde, Sal A 2 mg/kg i.p.
  formaldehyde-induced paw edema: significantly reduced
B6.SJL mice [19]; mice, i.p.
  duration of action (antinociceptive effects): 15 min
Rhesus macaques
  sedation: sedative effect
Mice [25]
  place conditioning at higher doses: aversion
Sprague-Dawley rats [26]
  cocaine-induced behavioral sensitization: attenuated
Rats [27]
  aversion in CTA experiments: no aversion
KOPr [28]
  signaling bias: balanced agonist
Rats [29]
  anxiety-related effects: anxiolytic effects
[30]
  P-glycoprotein efflux pump substrate: substrate
Rats [20]; 0.3 mg/kg
  taste aversion (saccharin consumption on test day): no effect
Sprague Dawley rats [31]
  sucrose self-administration: no effects

## COC(=O)[C@@H]1C[C@H](OC2CCCCO2)C(=O)[C@H]2[C@@]1(C)CC[C@H]1C(=O)O[C@H](c3ccoc3)C[C@]21C (stereo partly drawn) [β-tetrahydropyran Sal B]
Rats [1]
  pro-depressive effects: did not
B6.SJL mice [4]; intraplantar 2% formaldehyde
  antinociceptive effects: potent antinociceptive effects
Rats [3]; rats
  cocaine-prime induced cocaine seeking: attenuate
B6.SJL mice [19]; compared with Sal A
  potency and efficacy, cumulative dose-response: more potent and more efficacious than Sal A
